# Test results from PMC2362906, “Effects of new 17α-hydroxylase/C17,20-lyase inhibitors on LNCaP prostate cancer cell growth in vitro and in vivo” (British Journal of Cancer, 1999).
# What was measured:
# [1] = target: human prostatic 5-reductase; set-up: method as in Njar et al, 1998; details: human prostatic microsomes; reported previously; ref Njar et al, 1998; cited from earlier work
# [2] = target: T1, human 17α-hydroxylase/C17,20-lyase (P450c17) expressed in LNCaP-CYP17 cells (Homo sapiens, UniProt P05093); experiment: [3H]-acetic acid releasing assay (AARA) with LNCaP-CYP17 cells; format: cell-based; details: for IC50: LNCaP-CYP17 cells, 7 μM [21-3H]17-OHP5, 16 h, mean ± s.e.m., three experiments
# T1 sequence (P05093 9-508 limits assumed): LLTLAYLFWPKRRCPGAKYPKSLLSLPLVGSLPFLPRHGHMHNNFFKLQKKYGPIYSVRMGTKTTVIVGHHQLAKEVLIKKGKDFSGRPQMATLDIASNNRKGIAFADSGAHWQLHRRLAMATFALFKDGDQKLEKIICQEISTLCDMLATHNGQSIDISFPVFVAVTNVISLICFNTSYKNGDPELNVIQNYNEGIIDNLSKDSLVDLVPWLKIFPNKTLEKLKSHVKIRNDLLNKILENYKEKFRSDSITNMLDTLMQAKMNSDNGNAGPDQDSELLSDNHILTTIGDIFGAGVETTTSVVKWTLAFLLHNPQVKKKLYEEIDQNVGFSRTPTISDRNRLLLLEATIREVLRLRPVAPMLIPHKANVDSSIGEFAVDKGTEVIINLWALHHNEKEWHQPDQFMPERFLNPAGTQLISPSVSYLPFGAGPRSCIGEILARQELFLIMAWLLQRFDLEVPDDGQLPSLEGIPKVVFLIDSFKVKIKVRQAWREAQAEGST
# serum DHT = experiment: Serum DHT (RIA) in SCID mice; format: in vivo, male SCID mice; details: Table 3, second experiment, 28 days of treatment, 50 mg kg-1 day-1; control 239.2
# Text: (§1) Prostate cancer is the most common malignancy and the second leading cause of cancer-related deaths among men in the US and the UK (Shibata et al, 1998). […] Steroidal 17-hydroxylase/C17,20 -lyase (P450c17) (EC 1.14.99.0) was selected as the target enzyme for inhibition, as this is a key regulatory enzyme of androgen synthesis. P450c17 catal- yses two sequential reactions in the steroid biosynthetic pathway and converts pregnenolone and progesterone to the C-19 andro- gens, dehydroepiandrosterone and androstenedione respectively. This enzyme has an identical amino acid sequence in testicular and adrenal tissues (Chung et al, 1987). […] In order to evaluate the effectiveness of these inhibitors we developed a multi-step system, which utilized the LNCaP human prostate cancer cell line. LNCaP cells remain the only androgen receptor (AR)-positive prostate cancer cell line, that can be readily grown in tissue culture (Horoszewicz et al, 1983). These cells respond to androgens with increased cell proliferation and elevated expression of prostate specific antigen (PSA) (Berns et al, 1993). LNCaP cells at early passages are not only androgen-responsive, but also androgen- dependent (Pousette et al, 1997). This is similar to the situation in most tumours of prostatic cancer patients, which are initially highly responsive and dependent on androgens. […] Therefore, we employed LNCaP cells as a model for evaluating the effectiveness of our new inhibitors of androgen synthesis. In this study the compounds selected for evaluation were two groups of azolyl steroids. […] Here we report on the application of LNCaP-CYP17-transfected cells for determining the inhibitory potencies of the new compounds against the P450c17 enzyme. […] We designed and evaluated two groups of azolyl steroids: 5-non-competitive inhibitors (5NCIs), VN/63-1, VN/85-1, VN/87-1 and their corresponding 4 derivatives (4NCIs), VN/107-1, VN/108-1 and VN/109-1. The human P450c17 gene was transfected into LNCaP human prostate cancer cells, and the resultant LNCaP- CYP17 cells were utilized to evaluate the inhibitory potency of the new azolyl steroids. […] We further evaluated our inhibitors in male severe combined immuno- deficient mice bearing LNCaP tumour xenografts. […] We also utilized wild-type LNCaP prostatic carcinoma cells for evaluating the direct effects of new azolyl steroids on proliferation of these cells in vitro and in vivo. MATERIALS AND METHODS Materials The human prostate cancer cell line LNCaP was obtained from the American Type Culture Collection (Rockville, MD, USA). RPMI- 1640 medium, trypsin-EDTA (0.25%/0.02%), penicillin/strepto- mycin (P/S), geniticin (G418), and LipofectAMINE were from Gibco-BRL (Grand Island, NY, USA). Fetal bovine serum (FBS) was obtained from Summit Biotechnology Inc. (Fort Collins, CO, USA) and steroid-free FBS was prepared as described previously (Klus et al, 1996). Phenol red free IMEM and trypsin-versine were purchased from Biofluids Inc. (Rockville, MD, USA). Chloroform and acetonitrile were purchased from JT Baker, Inc (Phillipsburg, NJ, USA). Hydroxypropyl cellulose (HPC) was purchased from Sigma Chemical Co. (St Louis, MO, USA). The PSA enzyme- linked immunusorbent assay (ELISA) kit was from DSL Inc. (Webster, TX, USA). Matrigel was generously supplied by Dr Hynda Kleinman (NIH, Bethesda, MD, USA). Inhibitors of androgen synthesis: VN/63-1, VN/85-1, VN/87-1, VN/107-1, VN/108-1 and VN/109-1 were synthesized in our labo- ratory as previously described (Njar et al, 1998). […] Metribolone [17-methyl-3 H]-R1881 ([3 H]-R1881: specific activity 86 Ci mmol-1 ) was purchased from Dupont NEN (Boston, MA, USA).
# LNCaP cells [3] = experiment: Testosterone-stimulated wild-type LNCaP cell growth; format: cell-based, human; details: 0.1 nM testosterone
# Text: as §1
# LNCaP cells [4] = experiment: DHT-stimulated wild-type LNCaP cell growth; format: cell-based, human; details: 0.03 nM DHT, 9 days
# Text: as §1
# LNCaP tumour xenografts = experiment: LNCaP tumour xenograft growth in male SCID mice; format: in vivo; details: second experiment, 50 mg kg-1 day-1, 28 days
# Text: as §1
# serum testosterone = experiment: Serum testosterone (RIA) in SCID mice; format: in vivo, male SCID mice; details: Table 3, second experiment, 28 days of treatment, 50 mg kg-1 day-1; control 0.205
# Text: as §1
Structure (SMILES),IC50 [1] [µM],IC50 [2] [µM],Serum DHT (serum DHT) [pg/mL],"Effect on testosterone-stimulated cell growth (words) (LNCaP cells [3]; 0.5-5.0 μM compound, 9 days)",Effect on DHT-induced cell proliferation (LNCaP cells [4]; 0.5-5.0 μM compound),Effect on tumour growth (words) (LNCaP tumour xenografts),Effect on tumour growth (words) (LNCaP tumour xenografts; listed as VN/107),Serum Testosterone (serum testosterone) [ng/mL],Inhibition of testosterone stimulated cell growth (LNCaP cells [3]; compound at 2.5 and 5.0 μM),Stimulation of cell growth compared to DHT-treated cells (LNCaP cells [4]),"Km ([2]; substrate 0.5-20 μM, 16 h, 37C, RADLIG software) [µM]"
C[C@]12CCC(=O)C=C1CC[C@@H]1[C@@H]2CC[C@]2(C)C(n3cncn3)=CC[C@@H]12 [VN/107-1],0.152,0.0124,180.2,ineffective against testosterone-stimulated cell growth,least effective inhibitors of androgen-induced cell pro- liferation,no significant effects on tumour growth or tumour weights,"Neither VN/63-1, VN/107 nor ketoconazole had any appreciable effects",0.153,–,–,–
"CC(C)C(=O)Nc1ccc([N+](=O)[O-])c(C(F)(F)F)c1 [Flutamide, reference compound]",–,> 5,–,–,–,–,–,–,~ 50%,10-20%,–
"CC(=O)[C@@]1(O)CC[C@H]2[C@@H]3CC=C4C[C@@H](O)CC[C@]4(C)[C@H]3CC[C@@]21C [[213 H]17-hydroxypregnenolone, [21-3 H]17-Hydroxypregnenolone, reference compound]",–,–,–,–,–,–,–,–,–,–,0.87
